Reference: US20240270810A1, “PREPARATION AND APPLICATION OF POLYPEPTIDE” (GUANGDONG RAYNOVENT BIOTECH CO., LTD., priority 2021, published 2024)
*1 amine or outer side, *2 acyl side, *3 side chain or, on linkers, in order; H or OH if unused. Where a SMILES comes first, the peptide text is derived from it. Bridges are numbered along the chain shown (N, C = ends). [ ]: non-standard residue; d: D form. X1 = O=C(O)CCCCCCCCCCCCCCCCCCC(=O)N[C@@H](CCC(=O)NCCOCCOCC(=O)NCCOCCOCC(=O)N[C@@H](CCC(=O)[*:1])C(=O)[*:2])C(=O)O; Aib = CC(C)(N)C(=O)O

Assays:
GIPR = molecular target: T1, GIPR (Homo sapiens, UniProt P48546); test: In vitro GIPR agonistic activity test (cAMP kit); format: cell-based; settings: CHO host cells
T1 construct: host or cells: CHO
T1 sequence (P48546 22-466): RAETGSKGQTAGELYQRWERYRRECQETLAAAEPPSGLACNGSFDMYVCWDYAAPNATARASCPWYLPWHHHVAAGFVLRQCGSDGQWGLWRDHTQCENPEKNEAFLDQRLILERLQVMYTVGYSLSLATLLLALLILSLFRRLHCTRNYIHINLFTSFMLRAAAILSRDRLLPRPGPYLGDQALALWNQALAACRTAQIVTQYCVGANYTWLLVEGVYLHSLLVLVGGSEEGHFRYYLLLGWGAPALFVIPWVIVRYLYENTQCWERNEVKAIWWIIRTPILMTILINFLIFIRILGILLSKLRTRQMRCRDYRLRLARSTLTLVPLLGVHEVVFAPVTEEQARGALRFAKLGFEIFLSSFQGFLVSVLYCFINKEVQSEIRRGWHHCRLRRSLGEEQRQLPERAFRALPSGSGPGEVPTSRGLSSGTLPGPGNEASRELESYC
Procedure: The cell lines were constructed by Wuxi […] (Shanghai) Co., Ltd. See details in Table 1 below. […] The test compounds were diluted at a 4-fold dilution factor in 10 points, starting from an initial concentration of 30 μM. The dilution was carried out by Bravo. • 1) 100 nL of compounds were transferred to an OptiPlate-384 plate by Echo. • 2) The OptiPlate-384 plate was centrifuged at 1000 rpm for 5 s. • 1) A GLP-1R/GIPR cell cryovial was placed in warm water at 37° C. for rapid thawing. • 2) The cell suspension was transferred into a 15 mL Transfer centrifugal tube and rinsed with 10 mL of HBSS gently. • 3) The centrifugal tube was centrifuged at 1000 rpm at room temperature for 1 min. • 4) The supernatant was discarded. • 5) The bottom cells were gently dispersed, then gently rinsed with 10 mL of HBSS, the centrifugal tube was centrifuged to settle the cells, and finally the cells were resuspended in an experimental buffer. • 6) Cell density and viability were measured by Vi-cell. • 7) The GLP-1R/GIPR cells were diluted with the experimental buffer to a concentration of 2.0*10^5/mL. • 8) […] of the diluted cell suspension was transferred into the OptiPlate-384 plate. • 9) Incubation was performed at room temperature for 30 min. • 1) 10 μL of 800 nM gradient diluted cAMP standard was added into the empty wells of the OptiPlate-384 plate. • 2) 10 μL of cAMP assay reagent was added. • 3) The OptiPlate-384 plate was covered with TopSeal-A film and incubated at room temperature for 60 min. The TopSeal-A film was removed, and readout was performed on En Vision.

GLP-1R = molecular target: T2, GLP-1R (Homo sapiens, UniProt P43220); test: In vitro GLP-1R agonistic activity test (cAMP kit); format: cell-based; settings: HEK293 host cells
T2 construct: host or cells: HEK293
T2 sequence (P43220 24-463, species assumed): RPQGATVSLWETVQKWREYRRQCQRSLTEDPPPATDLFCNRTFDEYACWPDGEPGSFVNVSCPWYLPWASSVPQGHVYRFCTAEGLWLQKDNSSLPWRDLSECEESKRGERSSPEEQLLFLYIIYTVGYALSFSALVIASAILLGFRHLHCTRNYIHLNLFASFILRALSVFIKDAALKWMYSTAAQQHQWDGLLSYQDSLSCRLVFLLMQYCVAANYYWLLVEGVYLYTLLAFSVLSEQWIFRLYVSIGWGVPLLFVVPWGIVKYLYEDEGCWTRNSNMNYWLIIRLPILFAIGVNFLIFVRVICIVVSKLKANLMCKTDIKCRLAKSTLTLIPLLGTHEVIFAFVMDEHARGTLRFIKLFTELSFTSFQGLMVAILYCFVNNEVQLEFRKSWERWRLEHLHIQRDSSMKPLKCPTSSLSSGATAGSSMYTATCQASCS
Procedure: The cell lines were constructed by Wuxi […] (Shanghai) Co., Ltd. See details in Table 1 below. [table] [table] The test compounds were diluted at a 4-fold dilution factor in 10 points, starting from an initial concentration of 30 μM. The dilution was carried out by Bravo. • 1) 100 nL of compounds were transferred to an OptiPlate-384 plate by Echo. • 2) The OptiPlate-384 plate was centrifuged at 1000 rpm for 5 s. • 1) A GLP-1R/GIPR cell cryovial was placed in warm water at 37° C. for rapid thawing. • 2) The cell suspension was transferred into a 15 mL Transfer centrifugal tube and rinsed with 10 mL of HBSS gently. • 3) The centrifugal tube was centrifuged at 1000 rpm at room temperature for 1 min. • 4) The supernatant was discarded. • 5) The bottom cells were gently dispersed, then gently rinsed with 10 mL of HBSS, the centrifugal tube was centrifuged to settle the cells, and finally the cells were resuspended in an experimental buffer. • 6) Cell density and viability were measured by Vi-cell. • 7) The GLP-1R/GIPR cells were diluted with the experimental buffer to a concentration of 2.0*10^5/mL. • 8) […] of the diluted cell suspension was transferred into the OptiPlate-384 plate. • 9) Incubation was performed at room temperature for 30 min. • 1) 10 μL of 800 nM gradient diluted cAMP standard was added into the empty wells of the OptiPlate-384 plate. • 2) 10 μL of cAMP assay reagent was added. • 3) The OptiPlate-384 plate was covered with TopSeal-A film and incubated at room temperature for 60 min. The TopSeal-A film was removed, and readout was performed on En Vision.

| Compound | EC50 (GIPR; without 1% HSA) [nM] | EC50 (GLP-1R; without 1% HSA) [nM] | EC50 (GIPR; with 1% HSA) [nM] | EC50 (GLP-1R; with 1% HSA) [nM] |
| --- | --- | --- | --- | --- |
| CC[C@H](C)[C@H](NC(=O)[C@H](CC(C)C)NC(=O)[C@H](Cc1c[nH]c2ccccc12)NC(=O)[C@@H](NC(=O)[C@@H](NC(=O)[C@H](Cc1ccccc1)NC(=O)[C@H](C)NC(=O)[C@@H]1CCCCNC(=O)CN(C(=O)COCCOCCNC(=O)COCCOCCNC(=O)CC[C@H](NC(=O)CCCCCCCCCCCCCCCCCCC(=O)O)C(=O)O)CC(=O)NCCCC[C@H](NC(=O)[C@H](CCCCN)NC(=O)[C@H](CC(=O)O)NC(=O)[C@H](CC(C)C)NC(=O)C(C)(C)NC(=O)[C@@H](NC(=O)[C@H](CO)NC(=O)[C@H](Cc2ccc(O)cc2)NC(=O)[C@H](CC(=O)O)NC(=O)[C@H](CO)NC(=O)[C@@H](NC(=O)[C@H](Cc2ccccc2)NC(=O)[C@@H](NC(=O)CNC(=O)[C@H](CCC(=O)O)NC(=O)C(C)(C)NC(=O)[C@@H](N)Cc2ccc(O)cc2)[C@@H](C)O)[C@@H](C)O)[C@@H](C)CC)C(=O)N[C@@H](C)C(=O)N[C@@H](CCC(N)=O)C(=O)N1)C(C)C)[C@@H](C)CC)C(=O)N[C@@H](C)C(=O)NCC(=O)NCC(=O)N1CCC[C@H]1C(=O)N[C@@H](CO)C(=O)N[C@@H](CO)C(=O)NCC(=O)N[C@@H](C)C(=O)N1CCC[C@H]1C(=O)N1CCC[C@H]1C(=O)N1CCC[C@H]1C(=O)N[C@@H](CO)C(N)=O [WX-008] | 2.74 | 0.18 | – | – |
| CC[C@H](C)[C@H](NC(=O)[C@H](CC(C)C)NC(=O)[C@H](Cc1c[nH]c2ccccc12)NC(=O)[C@@H]1CCCCNC(=O)CN(C(=O)COCCOCCNC(=O)COCCOCCNC(=O)CC[C@H](NC(=O)CCCCCCCCCCCCCCCCCCC(=O)O)C(=O)O)CC(=O)NCCCC[C@H](NC(=O)[C@H](CCC(N)=O)NC(=O)[C@H](C)NC(=O)[C@@H](NC(=O)[C@H](CCCCN)NC(=O)[C@H](CC(=O)O)NC(=O)[C@H](CC(C)C)NC(=O)C(C)(C)NC(=O)[C@@H](NC(=O)[C@H](CO)NC(=O)[C@H](Cc2ccc(O)cc2)NC(=O)[C@H](CC(=O)O)NC(=O)[C@H](CO)NC(=O)[C@@H](NC(=O)[C@H](Cc2ccccc2)NC(=O)[C@@H](NC(=O)CNC(=O)[C@H](CCC(=O)O)NC(=O)C(C)(C)NC(=O)[C@@H](N)Cc2ccc(O)cc2)[C@@H](C)O)[C@@H](C)O)[C@@H](C)CC)[C@@H](C)CC)C(=O)N[C@@H](CCC(=O)O)C(=O)N[C@@H](Cc2ccccc2)C(=O)N[C@@H](C(C)C)C(=O)N1)C(=O)N[C@@H](C)C(=O)NCC(=O)NCC(=O)N1CCC[C@H]1C(=O)N[C@@H](CO)C(=O)N[C@@H](CO)C(=O)NCC(=O)N[C@@H](C)C(=O)N1CCC[C@H]1C(=O)N1CCC[C@H]1C(=O)N1CCC[C@H]1C(=O)N[C@@H](CO)C(N)=O [WX-002] | 0.43 | 0.19 | 12.5 | 31.3 |
| CC[C@H](C)[C@H](NC(=O)[C@H](CC(C)C)NC(=O)[C@H](Cc1c[nH]c2ccccc12)NC(=O)[C@H](CCC(=O)O)NC(=O)[C@@H](NC(=O)[C@H](Cc1ccccc1)NC(=O)[C@H](C)NC(=O)[C@@H]1CCCCNC(=O)[C@@H](NC(=O)COCCOCCNC(=O)COCCOCCNC(=O)CC[C@H](NC(=O)CCCCCCCCCCCCCCCCCCC(=O)O)C(=O)O)CCC(=O)NCCCC[C@H](NC(=O)[C@H](CCCCN)NC(=O)[C@H](CC(=O)O)NC(=O)[C@H](CC(C)C)NC(=O)C(C)(C)NC(=O)[C@@H](NC(=O)[C@H](CO)NC(=O)[C@H](Cc2ccc(O)cc2)NC(=O)[C@H](CC(=O)O)NC(=O)[C@H](CO)NC(=O)[C@@H](NC(=O)[C@H](Cc2ccccc2)NC(=O)[C@@H](NC(=O)CNC(=O)[C@H](CCC(=O)O)NC(=O)C(C)(C)NC(=O)[C@@H](N)Cc2ccc(O)cc2)[C@@H](C)O)[C@@H](C)O)[C@@H](C)CC)C(=O)N[C@@H](C)C(=O)N[C@@H](CCC(N)=O)C(=O)N1)C(C)C)C(=O)N[C@@H](C)C(=O)NCC(=O)NCC(=O)N1CCC[C@H]1C(=O)N[C@@H](CO)C(=O)N[C@@H](CO)C(=O)NCC(=O)N[C@@H](C)C(=O)N1CCC[C@H]1C(=O)N1CCC[C@H]1C(=O)N1CCC[C@H]1C(=O)N[C@@H](CO)C(N)=O [WX-011] (H-Y[Aib]EGTFTSDYSI[Aib]LDKKAQKAFVEWLIAGGPSSGAPPPS-NH2; linker 17-20 via X1) | 0.25 | 0.018 | – | – |

Results, then the compound that gave them:

| EC50 (GIPR; without 1% HSA) [nM] | EC50 (GLP-1R; without 1% HSA) [nM] | EC50 (GIPR; with 1% HSA) [nM] | EC50 (GLP-1R; with 1% HSA) [nM] | Compound |
| --- | --- | --- | --- | --- |
| 0.26 | 0.027 | – | – | CC[C@H](C)[C@H](NC(=O)[C@H](CC(C)C)NC(=O)[C@H](Cc1c[nH]c2ccccc12)NC(=O)[C@H](CCC(N)=O)NC(=O)[C@@H](NC(=O)[C@H](Cc1ccccc1)NC(=O)[C@H](C)NC(=O)[C@@H]1CCCCNC(=O)CN(C(=O)COCCOCCNC(=O)COCCOCCNC(=O)CC[C@H](NC(=O)CCCCCCCCCCCCCCCCCCC(=O)O)C(=O)O)CC(=O)NCCCC[C@H](NC(=O)[C@H](CCCCN)NC(=O)[C@H](CC(=O)O)NC(=O)[C@H](CC(C)C)NC(=O)C(C)(C)NC(=O)[C@@H](NC(=O)[C@H](CO)NC(=O)[C@H](Cc2ccc(O)cc2)NC(=O)[C@H](CC(=O)O)NC(=O)[C@H](CO)NC(=O)[C@@H](NC(=O)[C@H](Cc2ccccc2)NC(=O)[C@@H](NC(=O)CNC(=O)[C@H](CCC(=O)O)NC(=O)C(C)(C)NC(=O)[C@@H](N)Cc2ccc(O)cc2)[C@@H](C)O)[C@@H](C)O)[C@@H](C)CC)C(=O)N[C@@H](C)C(=O)N[C@@H](CCC(N)=O)C(=O)N1)C(C)C)C(=O)N[C@@H](C)C(=O)NCC(=O)NCC(=O)N1CCC[C@H]1C(=O)N[C@@H](CO)C(=O)N[C@@H](CO)C(=O)NCC(=O)N[C@@H](C)C(=O)N1CCC[C@H]1C(=O)N1CCC[C@H]1C(=O)N1CCC[C@H]1C(=O)N[C@@H](CO)C(N)=O [WX-006] |
| 0.17 | 0.024 | – | – | CC[C@H](C)[C@H](NC(=O)[C@H](CC(C)C)NC(=O)[C@H](Cc1c[nH]c2ccccc12)NC(=O)[C@H](CCC(=O)O)NC(=O)[C@@H](NC(=O)[C@H](Cc1ccccc1)NC(=O)[C@H](C)NC(=O)[C@@H]1CCCCNC(=O)CN(C(=O)COCCOCCNC(=O)COCCOCCNC(=O)CC[C@H](NC(=O)CCCCCCCCCCCCCCCCC(=O)O)C(=O)O)CC(=O)NCCCC[C@H](NC(=O)[C@H](CCCCN)NC(=O)[C@H](CC(=O)O)NC(=O)[C@H](CC(C)C)NC(=O)C(C)(C)NC(=O)[C@@H](NC(=O)[C@H](CO)NC(=O)[C@H](Cc2ccc(O)cc2)NC(=O)[C@H](CC(=O)O)NC(=O)[C@H](CO)NC(=O)[C@@H](NC(=O)[C@H](Cc2ccccc2)NC(=O)[C@@H](NC(=O)CNC(=O)[C@H](CCC(=O)O)NC(=O)C(C)(C)NC(=O)[C@@H](N)Cc2ccc(O)cc2)[C@@H](C)O)[C@@H](C)O)[C@@H](C)CC)C(=O)N[C@@H](C)C(=O)N[C@@H](CCC(N)=O)C(=O)N1)C(C)C)C(=O)N[C@@H](C)C(=O)NCC(=O)NCC(=O)N1CCC[C@H]1C(=O)N[C@@H](CO)C(=O)N[C@@H](CO)C(=O)NCC(=O)N[C@@H](C)C(=O)N1CCC[C@H]1C(=O)N1CCC[C@H]1C(=O)N1CCC[C@H]1C(=O)N[C@@H](CO)C(N)=O [WX-012] |
